Measured values published in the NIST ThermoML archive (doi:10.1021/je1010054).
± gives the expanded uncertainty stated by the source.

Conditions: Crystal; visual observation

Normal melting temperature: 197.50 ± 0.53 °C
SMILES: O=C1C=CC(=O)N1c1cc(F)c(Br)c(F)c1 [1-(4-bromo-3,5-difluorophenyl)-1H-pyrrole-2,5-dione]
